Measurements reported in ChEMBL document CHEMBL5465560, “Selectivity Literature for EUbOPEN Chemogenomic Library” (2024).
Each block holds one compound with its values, some of them ahead of it.

Assays:
[1] = molecular target: Tyrosine-protein kinase Lck (Homo sapiens, UniProt P06239); test: Selectivity interaction (Millipore kinase profiler) EUB0000124b LCK; details: at 10 µM
[2] = molecular target: T1, Serine/threonine-protein kinase Nek11 (Homo sapiens) (UniProt Q8NG66); test: Selectivity interaction (KinomeScan (DiscoverX)) EUB0001049a NEK11; details: at 1 µM
T1 sequence (whole entry): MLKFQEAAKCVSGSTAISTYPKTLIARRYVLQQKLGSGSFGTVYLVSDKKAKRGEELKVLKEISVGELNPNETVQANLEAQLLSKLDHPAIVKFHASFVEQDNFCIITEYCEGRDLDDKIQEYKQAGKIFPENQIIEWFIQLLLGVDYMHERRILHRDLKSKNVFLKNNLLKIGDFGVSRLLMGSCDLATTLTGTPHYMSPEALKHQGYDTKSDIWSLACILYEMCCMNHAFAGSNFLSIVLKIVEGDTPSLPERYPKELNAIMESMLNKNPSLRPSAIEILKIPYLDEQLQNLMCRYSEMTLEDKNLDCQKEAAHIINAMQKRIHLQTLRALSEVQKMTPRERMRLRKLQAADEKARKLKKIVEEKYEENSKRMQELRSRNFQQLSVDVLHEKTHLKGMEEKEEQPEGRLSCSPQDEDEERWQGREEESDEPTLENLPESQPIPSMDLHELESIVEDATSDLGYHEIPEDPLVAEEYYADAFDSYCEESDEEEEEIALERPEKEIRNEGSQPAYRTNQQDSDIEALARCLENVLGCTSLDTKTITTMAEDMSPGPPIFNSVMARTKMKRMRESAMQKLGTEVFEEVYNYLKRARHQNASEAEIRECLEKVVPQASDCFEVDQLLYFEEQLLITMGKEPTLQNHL

[3] = molecular target: Serine/threonine-protein kinase PAK 1 (Homo sapiens) (UniProt Q13153); test: Selectivity interaction (KinomeScan (DiscoverX)) EUB0001049a PAK1; details: at 1 µM
[4] = molecular target: T2, Serine/threonine-protein kinase Sgk3 (Homo sapiens) (UniProt Q96BR1); test: Selectivity interaction (Ambit KINOMEscan and KiNATiv profiling in Jurkat cells) EUB0000090b SGK3; assay type: cell-based; details: at 1 µM
T2 sequence (whole entry): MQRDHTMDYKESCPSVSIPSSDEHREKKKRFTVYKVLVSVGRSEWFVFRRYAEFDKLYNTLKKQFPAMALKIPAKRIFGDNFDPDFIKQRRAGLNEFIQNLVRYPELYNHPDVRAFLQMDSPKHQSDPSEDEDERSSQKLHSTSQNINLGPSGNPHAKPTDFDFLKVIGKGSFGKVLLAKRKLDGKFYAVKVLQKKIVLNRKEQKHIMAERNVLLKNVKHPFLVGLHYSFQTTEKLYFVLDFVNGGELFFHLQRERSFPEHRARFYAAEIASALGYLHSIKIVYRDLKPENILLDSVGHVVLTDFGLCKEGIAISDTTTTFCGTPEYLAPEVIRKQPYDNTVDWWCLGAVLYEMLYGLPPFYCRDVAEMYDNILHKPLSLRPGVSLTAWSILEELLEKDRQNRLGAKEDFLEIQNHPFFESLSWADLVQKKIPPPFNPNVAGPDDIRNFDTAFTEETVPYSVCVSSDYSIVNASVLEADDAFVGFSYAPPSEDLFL

[5] = molecular target: T3, Phosphatidylinositol 4,5-bisphosphate 3-kinase catalytic subunit delta isoform (Homo sapiens) (UniProt O00329); test: Selectivity interaction (ActivX KiNativ screen (kinase selectivity in THP-1 cell lysates)) EUB0000639a PIK3CD; assay type: subcellular; details: lysate, at 1 µM
T3 sequence (whole entry): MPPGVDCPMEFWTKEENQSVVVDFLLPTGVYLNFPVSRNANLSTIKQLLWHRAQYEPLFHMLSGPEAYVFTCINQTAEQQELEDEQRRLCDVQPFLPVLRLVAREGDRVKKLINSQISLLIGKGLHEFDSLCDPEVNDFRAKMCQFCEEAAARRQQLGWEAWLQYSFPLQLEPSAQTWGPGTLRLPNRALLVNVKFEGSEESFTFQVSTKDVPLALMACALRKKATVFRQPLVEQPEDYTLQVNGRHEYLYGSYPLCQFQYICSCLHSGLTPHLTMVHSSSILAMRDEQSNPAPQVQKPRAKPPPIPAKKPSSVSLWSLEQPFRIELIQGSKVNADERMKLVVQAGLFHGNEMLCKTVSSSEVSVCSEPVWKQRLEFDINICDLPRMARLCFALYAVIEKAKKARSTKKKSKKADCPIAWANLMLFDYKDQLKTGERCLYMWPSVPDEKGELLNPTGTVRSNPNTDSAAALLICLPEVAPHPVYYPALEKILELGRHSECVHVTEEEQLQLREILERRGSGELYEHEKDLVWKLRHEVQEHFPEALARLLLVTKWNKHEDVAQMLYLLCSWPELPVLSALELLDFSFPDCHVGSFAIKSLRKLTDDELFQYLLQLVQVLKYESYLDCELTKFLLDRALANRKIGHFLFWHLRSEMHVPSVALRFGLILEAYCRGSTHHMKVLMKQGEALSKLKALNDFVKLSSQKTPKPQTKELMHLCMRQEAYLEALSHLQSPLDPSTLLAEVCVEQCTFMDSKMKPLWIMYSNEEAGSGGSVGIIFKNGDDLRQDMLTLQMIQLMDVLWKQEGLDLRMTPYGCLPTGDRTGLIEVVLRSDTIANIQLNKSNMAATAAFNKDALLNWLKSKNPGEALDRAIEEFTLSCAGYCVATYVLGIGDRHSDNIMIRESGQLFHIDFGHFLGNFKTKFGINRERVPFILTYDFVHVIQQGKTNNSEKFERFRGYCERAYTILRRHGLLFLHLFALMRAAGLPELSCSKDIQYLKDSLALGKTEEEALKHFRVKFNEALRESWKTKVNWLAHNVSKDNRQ

[6] = molecular target: Histone-lysine N-methyltransferase 2A (Homo sapiens) (UniProt Q03164); details: at 1 µM
[7] = system: Phosphatidylinositol 4,5-bisphosphate 3-kinase catalytic subunit alpha isoform (Homo sapiens), P42336 [E545K]; details: at 10 µM
[8] = molecular target: Cyclin-dependent kinase-like 3 (Homo sapiens) (UniProt Q8IVW4); test: Selectivity interaction (KinomeScan (DiscoverX)) EUB0001079a CDKL3; details: at 1 µM
[9] = molecular target: T2, Serine/threonine-protein kinase Sgk3 (Homo sapiens); test: Selectivity interaction (ProQinase) EUB0000171b SGK3
[10] = molecular target: Receptor-interacting serine/threonine-protein kinase 2 (Homo sapiens, UniProt O43353); test: Selectivity interaction (KinomeScan (DiscoverX)) EUB0000092b RIPK2; details: at 10 µM
[11] = molecular target: Serine/threonine-protein kinase B-raf (Homo sapiens) (UniProt P15056); details: at 10 µM
[12] = molecular target: Dual specificity tyrosine-phosphorylation-regulated kinase 1A (Homo sapiens, UniProt Q13627); test: Selectivity interaction (KinomeScan (DiscoverX)) EUB0001619a DYRK1A; details: at 1 µM
[13] = molecular target: Activin receptor type-2B (Homo sapiens) (UniProt Q13705); test: Selectivity interaction (KinomeScan (DiscoverX)) EUB0000618a ACVR2B; details: at 10 µM
Activin receptor type-2B (Homo sapiens), sequence (Q13705 whole entry): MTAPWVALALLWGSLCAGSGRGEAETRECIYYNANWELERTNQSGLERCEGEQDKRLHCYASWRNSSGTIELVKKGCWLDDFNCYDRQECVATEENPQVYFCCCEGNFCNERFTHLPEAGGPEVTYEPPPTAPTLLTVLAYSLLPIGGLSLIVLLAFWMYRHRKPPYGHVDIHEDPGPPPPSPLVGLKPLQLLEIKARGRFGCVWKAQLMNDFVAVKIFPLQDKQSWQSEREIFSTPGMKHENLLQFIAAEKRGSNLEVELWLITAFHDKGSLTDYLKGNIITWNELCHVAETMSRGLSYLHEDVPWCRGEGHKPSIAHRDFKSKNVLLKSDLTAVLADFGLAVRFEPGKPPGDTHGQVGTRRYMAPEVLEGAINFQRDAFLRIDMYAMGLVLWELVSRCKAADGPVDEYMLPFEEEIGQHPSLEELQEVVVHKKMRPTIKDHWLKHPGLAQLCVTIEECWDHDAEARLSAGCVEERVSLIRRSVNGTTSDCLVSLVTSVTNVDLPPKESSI

Serine/threonine-protein kinase B-raf (Homo sapiens), sequence (P15056 whole entry): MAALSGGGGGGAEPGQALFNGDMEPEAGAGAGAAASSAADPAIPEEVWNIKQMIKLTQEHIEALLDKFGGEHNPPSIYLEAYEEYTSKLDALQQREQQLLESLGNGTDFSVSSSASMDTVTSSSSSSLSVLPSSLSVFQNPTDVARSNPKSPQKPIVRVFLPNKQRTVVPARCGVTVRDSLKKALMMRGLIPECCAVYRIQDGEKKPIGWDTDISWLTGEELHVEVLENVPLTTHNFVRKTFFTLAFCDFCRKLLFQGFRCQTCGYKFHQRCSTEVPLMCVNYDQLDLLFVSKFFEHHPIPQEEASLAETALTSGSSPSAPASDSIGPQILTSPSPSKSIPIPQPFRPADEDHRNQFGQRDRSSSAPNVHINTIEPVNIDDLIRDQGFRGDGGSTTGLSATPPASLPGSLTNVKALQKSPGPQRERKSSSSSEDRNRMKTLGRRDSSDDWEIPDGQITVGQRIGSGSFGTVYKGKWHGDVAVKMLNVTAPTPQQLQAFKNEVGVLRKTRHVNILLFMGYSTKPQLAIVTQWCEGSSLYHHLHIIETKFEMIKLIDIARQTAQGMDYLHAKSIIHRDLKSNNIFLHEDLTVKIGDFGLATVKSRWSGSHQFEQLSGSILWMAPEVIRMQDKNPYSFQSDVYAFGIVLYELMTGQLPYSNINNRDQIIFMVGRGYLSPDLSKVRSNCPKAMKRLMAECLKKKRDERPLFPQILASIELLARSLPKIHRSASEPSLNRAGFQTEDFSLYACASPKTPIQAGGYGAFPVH
Phosphatidylinositol 4,5-bisphosphate 3-kinase catalytic subunit alpha isoform (Homo sapiens), P42336 [E545K], sequence (P42336 whole entry E545K, canonical isoform): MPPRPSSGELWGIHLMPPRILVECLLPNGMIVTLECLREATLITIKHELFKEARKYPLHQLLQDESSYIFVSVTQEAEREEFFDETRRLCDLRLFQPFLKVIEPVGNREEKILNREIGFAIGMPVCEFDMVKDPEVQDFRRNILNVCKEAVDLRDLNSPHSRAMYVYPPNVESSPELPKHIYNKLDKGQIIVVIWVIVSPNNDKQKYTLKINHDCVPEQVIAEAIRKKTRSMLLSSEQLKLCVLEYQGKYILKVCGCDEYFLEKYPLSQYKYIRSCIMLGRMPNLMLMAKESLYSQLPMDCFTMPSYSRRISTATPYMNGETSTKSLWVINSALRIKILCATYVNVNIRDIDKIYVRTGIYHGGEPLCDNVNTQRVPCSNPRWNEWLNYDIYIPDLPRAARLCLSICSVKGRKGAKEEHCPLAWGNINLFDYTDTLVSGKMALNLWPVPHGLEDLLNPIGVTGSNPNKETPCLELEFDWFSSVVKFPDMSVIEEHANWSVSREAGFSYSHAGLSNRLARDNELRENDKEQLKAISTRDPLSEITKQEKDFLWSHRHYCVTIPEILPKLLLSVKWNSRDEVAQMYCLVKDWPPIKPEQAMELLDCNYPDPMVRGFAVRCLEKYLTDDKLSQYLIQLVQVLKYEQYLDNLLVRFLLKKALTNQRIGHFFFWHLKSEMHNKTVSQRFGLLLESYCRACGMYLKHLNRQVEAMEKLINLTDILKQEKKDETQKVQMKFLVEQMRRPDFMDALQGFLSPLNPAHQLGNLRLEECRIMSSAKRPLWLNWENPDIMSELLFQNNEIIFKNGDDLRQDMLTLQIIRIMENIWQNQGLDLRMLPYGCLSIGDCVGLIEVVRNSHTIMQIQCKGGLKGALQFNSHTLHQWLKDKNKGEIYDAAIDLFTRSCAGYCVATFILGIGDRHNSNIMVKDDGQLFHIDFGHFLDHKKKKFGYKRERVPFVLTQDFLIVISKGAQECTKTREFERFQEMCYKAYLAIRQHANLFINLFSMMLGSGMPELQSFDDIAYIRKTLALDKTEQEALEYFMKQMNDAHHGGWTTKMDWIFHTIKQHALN
Receptor-interacting serine/threonine-protein kinase 2, sequence (O43353 whole entry): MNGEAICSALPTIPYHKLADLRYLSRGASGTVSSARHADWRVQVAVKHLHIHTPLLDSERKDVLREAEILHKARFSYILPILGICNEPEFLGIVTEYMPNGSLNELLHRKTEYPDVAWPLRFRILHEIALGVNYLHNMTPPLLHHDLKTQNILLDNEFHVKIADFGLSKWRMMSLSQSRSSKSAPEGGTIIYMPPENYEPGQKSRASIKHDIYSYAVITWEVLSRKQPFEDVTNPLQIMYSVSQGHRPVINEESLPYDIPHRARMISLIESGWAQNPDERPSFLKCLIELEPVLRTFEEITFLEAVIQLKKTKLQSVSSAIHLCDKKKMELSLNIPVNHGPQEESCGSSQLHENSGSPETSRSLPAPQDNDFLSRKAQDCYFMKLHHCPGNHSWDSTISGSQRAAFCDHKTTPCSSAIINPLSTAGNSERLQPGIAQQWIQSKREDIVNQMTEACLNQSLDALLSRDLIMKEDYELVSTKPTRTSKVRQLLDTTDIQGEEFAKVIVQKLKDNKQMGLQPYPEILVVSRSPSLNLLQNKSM
Serine/threonine-protein kinase PAK 1 (Homo sapiens), sequence (Q13153 whole entry): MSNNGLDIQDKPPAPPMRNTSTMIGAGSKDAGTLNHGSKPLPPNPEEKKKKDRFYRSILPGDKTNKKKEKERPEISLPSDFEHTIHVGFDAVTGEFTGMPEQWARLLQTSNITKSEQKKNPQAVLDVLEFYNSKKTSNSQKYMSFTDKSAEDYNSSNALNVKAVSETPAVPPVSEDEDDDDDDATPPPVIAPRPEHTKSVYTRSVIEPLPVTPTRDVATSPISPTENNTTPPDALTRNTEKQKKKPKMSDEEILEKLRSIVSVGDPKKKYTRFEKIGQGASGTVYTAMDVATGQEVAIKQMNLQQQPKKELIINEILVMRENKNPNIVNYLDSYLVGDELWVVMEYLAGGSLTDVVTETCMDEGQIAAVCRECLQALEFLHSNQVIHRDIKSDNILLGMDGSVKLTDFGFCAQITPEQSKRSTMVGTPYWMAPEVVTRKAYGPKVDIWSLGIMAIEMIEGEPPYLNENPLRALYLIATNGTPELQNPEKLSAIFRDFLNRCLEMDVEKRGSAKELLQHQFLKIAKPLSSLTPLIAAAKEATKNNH
Cyclin-dependent kinase-like 3 (Homo sapiens), sequence (Q8IVW4 whole entry, looked up): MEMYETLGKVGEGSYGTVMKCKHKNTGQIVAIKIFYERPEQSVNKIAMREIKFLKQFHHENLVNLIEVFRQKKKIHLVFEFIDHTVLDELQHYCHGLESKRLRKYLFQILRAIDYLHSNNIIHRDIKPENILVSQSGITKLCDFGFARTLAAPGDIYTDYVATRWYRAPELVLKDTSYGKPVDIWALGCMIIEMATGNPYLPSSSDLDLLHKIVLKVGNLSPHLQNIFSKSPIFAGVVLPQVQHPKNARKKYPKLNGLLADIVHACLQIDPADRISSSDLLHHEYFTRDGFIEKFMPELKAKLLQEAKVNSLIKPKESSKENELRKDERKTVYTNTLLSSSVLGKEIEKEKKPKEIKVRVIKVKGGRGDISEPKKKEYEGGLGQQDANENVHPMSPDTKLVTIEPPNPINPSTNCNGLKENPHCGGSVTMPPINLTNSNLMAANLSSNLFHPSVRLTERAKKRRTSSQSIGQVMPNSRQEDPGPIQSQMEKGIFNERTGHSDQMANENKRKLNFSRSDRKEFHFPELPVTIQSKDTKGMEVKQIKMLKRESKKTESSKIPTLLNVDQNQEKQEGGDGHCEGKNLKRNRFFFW
Tyrosine-protein kinase Lck, sequence (P06239 2-509 limits assumed): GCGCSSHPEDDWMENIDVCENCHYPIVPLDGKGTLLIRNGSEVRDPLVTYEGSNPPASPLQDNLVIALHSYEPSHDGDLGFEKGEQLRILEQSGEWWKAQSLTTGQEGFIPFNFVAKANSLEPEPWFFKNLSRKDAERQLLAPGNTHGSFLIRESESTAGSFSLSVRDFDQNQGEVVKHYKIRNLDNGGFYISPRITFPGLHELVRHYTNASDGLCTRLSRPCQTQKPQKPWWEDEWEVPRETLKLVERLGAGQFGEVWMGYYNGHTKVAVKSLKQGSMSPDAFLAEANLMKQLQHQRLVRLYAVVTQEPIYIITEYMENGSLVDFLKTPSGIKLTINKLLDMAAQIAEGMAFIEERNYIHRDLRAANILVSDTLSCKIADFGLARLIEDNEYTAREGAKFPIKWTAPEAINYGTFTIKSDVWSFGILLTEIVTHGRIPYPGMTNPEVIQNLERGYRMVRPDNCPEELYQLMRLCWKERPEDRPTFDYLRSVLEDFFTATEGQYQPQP

% of control [1]: 110%
SMILES: CC(=O)Nc1cccc(-n2c(=O)n(C3CC3)c(=O)c3c(Nc4ccc(I)cc4F)n(C)c(=O)c(C)c32)c1

SMILES: COc1cc(Nc2nc(C)cc(-c3cnn4nc(OC)ccc34)n2)cc(C(F)(F)F)c1
% of control [2]: 99% | % of control [3]: 86%

SMILES: CN(C)C/C=C/C(=O)Nc1ccc(C(=O)N2CCCC(Nc3ncc(Cl)c(-c4c[nH]c5ccccc45)n3)C2)cc1 (centres undefined)
% of control [4]: 84%

% of inhibition [5]: -2.6%
SMILES: CC[C@@H]1[C@H](F)C(=O)N[C@@H]1COc1nccc2cc(C(N)=O)c(OC)cc12 [ZIMLOVISERTIB]

% activity [6]: > 90%
SMILES: CNCCN1CCC(c2cc(CN(C)C(=O)c3cccc(Oc4ccccc4)c3)ccn2)CC1

% of control [7]: 100%
SMILES: CCN(CC)CCCCNc1ncc2cc(-c3cc(OC)cc(OC)c3)c(NC(=O)NC(C)(C)C)nc2n1

SMILES: Nc1cnc(N2CCc3cc(S(=O)(=O)Nc4c(F)cc(Cl)cc4F)cc(N4CCCC4=O)c32)nc1 [TP-020n]
% of control [8]: 100%

% of control ([9]; at 1 µM): 82% | % of control ([9]; at 5 µM): 76%
SMILES: C=CC(=O)Nc1cccc(C(=O)Nc2ccc(Nc3cc(-c4[nH]c(SC)nc4C)ccn3)cc2)c1

SMILES: CCC(=O)N1CCN(c2ccc(-n3c(=O)ccc4cnc5ccc(-c6cnc7ccccc7c6)cc5c43)cc2C(F)(F)F)CC1
% of control [10]: 44%

SMILES: CN(C)CCOc1ccc(-c2nc(-c3ccncc3)c(-c3ccc4c(c3)CC/C4=N\O)[nH]2)cc1
% of control [11]: 0%

SMILES: N#Cc1cccc(-c2c[nH]c3ncnc(N4CCOCC4)c23)c1
% of control [12]: 78%

SMILES: O[C@H]1CC[C@H](Nc2ncc3nc(Nc4c(F)cc(F)cc4F)n([C@H]4CCOC4)c3n2)CC1
% of control [13]: 100%
